For orientation: EC50 means the concentration at which the effect is half-maximal. What is called IC50 is the concentration that gives 50% inhibition. High values mean a need for much substance, low ones inhibition by little substance.

Each structure is given as a SMILES string. Active and inactive are the calls of the source.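 How the source made its calls: active means compounds giving half or more protection of infected cells from virus-caused growth loss, again on retest; inactive means the rest.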 Bounds are passed on as bounds.

The experiment concerns CEM cells HIV-1 protection, formazan growth assay. Description: NCI AIDS Antiviral Assay. The note with it: for IC50: measured here: growth of uninfected CEM cells. The method in brief: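 Category rules: moderately active means at least 50% protection on retest, and confirmed active means 100% protection reproducibly. The underlying data came from a formazan growth assay in HIV-1-infected CEM cells.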

As to `COc1ccc(N2C(=O)/C(=C/c3ccc(N(CCC#N)CCC#N)cc3C)N=C2c2cc([N+](=O)[O-])ccc2Cl)cc1`, the EC50 is over 12.6 µM and the half-inhibitory concentration (IC50) stood at 3.02 µM.
In the case of `COc1ccccc1/C=C(/C(C)=O)C(=O)c1ccccc1`, the EC50 was over 25.7 µM and the IC50 is over 25.7 µM.
On to `N#C/C(=C/NC(=S)c1ccncc1)C(N)=O`, for which the EC50 was over 200 µM and the IC50 was over 200 µM.
Turning to `CC1C(NNC(N)=O)Oc2cc3c(cc2C1c1ccccc1O)OCO3` (centres undefined), the EC50 is over 200 µM and the IC50 is 32.4 µM.
Turning to `C=C1C(=O)O[C@@H]2C=C(C)C3=CC(=O)[C@](C)(C[C@H](OC(=O)/C(C)=C\C)[C@@H]12)O3`, the EC50 was over 5.37 µM and the IC50 amounted to 0.224 µM.
The corresponding values for `CCN(CC)CCOc1ccc2c(c1O)C(=O)c1ccccc1C2=O` are over 74.1 µM and 3.98 µM.
The corresponding values for `COC(=O)CC(=O)/C(=C/C(C/C=C(\C(=O)CC(=O)OC)C(=O)OC)OC)C(=O)OC` (centres undefined) are over 200 µM and over 200 µM.
For `Cc1cc(N(CCC#N)CCC#N)ccc1N=Nc1cccc(C(=O)O)c1` the same measures were over 72.4 µM and 57.5 µM.
Take `O=C1OC2(OC2c2ccc(Cl)cc2)c2ccccc21` (centres undefined): the EC50 was over 69.2 µM and the IC50 is over 69.2 µM.
Consider `O=C(OCc1ccccc1)N1CCN(C(=O)OCc2ccccc2)CCN(C(=O)OCc2ccccc2)CCN(C(=O)OCc2ccccc2)CCN(C(=O)OCc2ccccc2)CC1`, for which the EC50 is over 100 µM and the IC50 is over 100 µM.
Consider `N#CSc1nc[nH]c1C(N)=O`, for which the EC50 is over 200 µM and the IC50 is 10 µM.
For `CC1CC[P+](C)(Cc2ccccc2)C1` (mixture of isomers) the same measures were over 437 µM and 162 µM.
For `C=CN(C=C)C(=O)Cn1cc(-c2ccccc2)nn1`, the EC50 was over 200 µM and the IC50 was over 200 µM.
`CCC[CH2][Sn]([CH2]CCC)([O]C(=O)c1ccc(OC)c(OC)c1OC)[O][Sn]([CH2]CCC)([CH2]CCC)[O]C(=O)c1ccc(OC)c(OC)c1OC`: the EC50 was over 5.75 µM and the IC50 was found to be 0.871 µM.
Consider `C=CCCOC(=O)CO[N+](=O)[O-]`, for which the result was inactive.
Take `O=c1[nH]c(=O)c2nnoc2[nH]1`: the EC50 was over 200 µM and the IC50 turned out to be 75.9 µM.
Consider `CC(C)N1C(C)[C@@H](c2ccccc2)O[P@@]1(=O)/C=C/C[C@H]1CC(=O)CCN1Cc1ccccc1` (some centres undefined), for which the result was inactive.
Consider `Cc1nn(C(=O)c2ccncc2)c2c1C(c1ccc(Cl)cc1)SC(N)=N2` (centres undefined), for which the EC50 is over 200 µM and the IC50 worked out at 30.9 µM.
With `N#C/C(=C\c1ccccc1)C(=O)c1ccccc1`, the EC50 is over 95.5 µM and the IC50 is over 95.5 µM.
As to `Cc1c2c(cc3c1C(=O)C(=O)C([C@@H](C)CO)=C3O)C(C)(C)CCC2`, the EC50 was over 200 µM and the half-inhibitory concentration (IC50) came out at 15.1 µM.
The corresponding values for `CCOC(=O)C(NC(=O)CC)(C(F)(F)F)P(=O)(OCC)OCC` (centres undefined) are over 200 µM and over 200 µM.
With `Nc1nc(N)c(N)c(Nc2ccccc2)n1`, the EC50 was over 200 µM and the IC50 worked out at 20.4 µM.
Turning to `CCCCCC=C(c1ccc(OC)c(C(=O)OC)c1)c1ccc(OC)c(C(=O)OC)c1`, the EC50 is over 200 µM and the IC50 was 27.5 µM.
For `Cc1n(CC(C)C)c2c([n+]1CC(=O)c1ccc([N+](=O)[O-])cc1)C(=O)c1ccccc1C2=O` the same measures were over 4.9 µM and 0.0288 µM.
The corresponding values for `IC[P+]1(c2ccccc2)CCCC1` are over 575 µM and 55 µM.
For `Cc1nc(OCc2ccccc2)c2ncn(CCO)c2n1` the same measures were over 200 µM and over 200 µM.
Turning to `COc1ccc(C2C(C#N)=C(S)N(C3OC(COC(C)=O)C(OC(C)=O)C(OC(C)=O)C3OC(C)=O)C(C)=C2C(C)=O)cc1` (centres undefined), the EC50 was over 200 µM and the half-inhibitory concentration (IC50) is 53.7 µM.
Take `COc1ccc2c(c1)-c1oc3ccccc3c(=O)c1CO2`: the EC50 is over 200 µM and the IC50 is 32.4 µM.
For the compound `O=C(NNC(=S)Nc1ccc(Br)cc1)c1cc(-c2ccccc2)nc2ccccc12`, the EC50 was over 200 µM and the IC50 came to 9.77 µM.
The corresponding values for `CCn1c2ccccc2c2cc(NC(=O)c3c(NCCNCCO)nc(=O)[nH]c3C)ccc21` are over 200 µM and over 200 µM.
As to `CC(C)CC1NC(=O)C(CC(C)C)N(CO)C1=O` (centres undefined), the EC50 was over 200 µM and the IC50 is over 200 µM.
Turning to `CCc1cc(-c2ccc(OC)cc2)c(C#N)c(=S)n1C1OC(CO)C(O)C(O)C1O` (centres undefined), the EC50 was over 200 µM and the 50% inhibitory concentration (IC50) was determined as 126 µM.
For `Nc1ccc(S(=O)(=O)Nc2cnc3c(Cl)cccc3n2)cc1` the same measures were over 537 µM and 6.46 µM.
With `CC(=O)Nc1cc2ccc(C)nc2c2nc(C)ccc12`, the EC50 was over 200 µM and the IC50 was over 200 µM.
With `Cc1cn(COCC(O)C[N+](=O)[O-])c(=O)[nH]c1=O` (centres undefined), the EC50 is over 200 µM and the IC50 is over 200 µM.
On to `CC(=O)Oc1c(OC(C)=O)c(-c2ccc(O)c(O)c2)c(O)c(O)c1-c1ccc(O)cc1`, for which the EC50 was over 200 µM and the IC50 worked out at 27.5 µM.
For `CC1(C)C(=O)N=C(N)N1C(=O)OCc1ccccc1` the same measures were over 200 µM and over 200 µM.
With `C[Si](C)(C)/C=C/CN1C(=O)CCC1O` (centres undefined), the outcome was inactive.
Turning to `Cc1cccc(/C=N\NC(=S)N2CCCCC2)n1`, the EC50 was over 200 µM and the concentration for half-maximal inhibition (IC50) was 0.0631 µM.
For the compound `O=C1C/C(=C/c2ccc(/C=C3/CC(=O)N(c4cccc(Br)c4)C3=O)cc2)C(=O)N1c1cccc(Br)c1`, the EC50 is over 11.2 µM and the IC50 is over 11.2 µM.
With `O=C1CC(c2ccc(Cl)cc2)C2(C(=O)NC(=O)NC2=O)C(c2ccc(Cl)cc2)C1` (centres undefined), the EC50 was over 75.9 µM and the IC50 worked out at 34.7 µM.
For `N/C(=N/N=C/c1cccnc1)NO`, the result was inactive.
On to `OC(c1ccc(C(F)(F)F)cc1)C(F)(F)c1nc2ccccc2o1` (centres undefined), for which the EC50 was over 200 µM and the 50% inhibitory concentration (IC50) is over 200 µM.
As to `O=C(NCCCN(CCCCN(CCCNC(=O)C(F)(F)F)Cc1ccc2ccccc2c1)Cc1ccc2ccccc2c1)C(F)(F)F`, the result was inactive.
On to `Cc1ccc(S(=O)(=O)N(/N=C/C=C/c2ccccc2)c2nnc(-c3ccccc3)c(-c3ccccc3)n2)cc1`, for which the EC50 is over 18.6 µM and the IC50 came out at 10 µM.
For the compound `CCOC(=O)C1(Cc2ccc(C)cc2)Cc2ccc(C)cc2C1=O` (centres undefined), the EC50 was over 200 µM and the IC50 stood at 4.68 µM.
Take `C(/C=N/NC1=NCCCN1)=N\NC1=NCCCN1`: the EC50 is 162 µM and the IC50 was over 200 µM.
Turning to `Cc1c(OC(C)C(=O)O)ccc2c(-c3ccccc3)cc(=O)oc12` (centres undefined), the result was inactive.
As to `CC(NC(=O)C1CCCN1C(=O)OC(C)(C)C)C(=O)OCc1ccccc1` (centres undefined), the EC50 is over 95.5 µM and the IC50 turned out to be 60.3 µM.
For the compound `COc1ccc(C2S/C(=C\c3cc(OC)c(OC)c(OC)c3)C(=O)N2NC(=O)Cc2ccccc2)cc1` (centres undefined), the EC50 is over 36.3 µM and the IC50 was over 36.3 µM.
For `CCOC(=O)Cc1cc(=O)n(C)c2ccccc12`, the EC50 is over 200 µM and the IC50 was over 200 µM.
Consider `CCOC(=O)C(NCc1ccccc1)(NC(=O)c1ccccc1)C(F)(F)F` (centres undefined), for which the outcome was inactive.
Take `Clc1ccc(Nc2nc(Cl)c3[nH]cnc3n2)cc1Cl`: the EC50 is over 200 µM and the half-maximal inhibitory concentration (IC50) turned out to be 63.1 µM.
For `COc1c(C)c(C/C=C(\C)CCCC(C)CCCC(C)CCCC(C)C)c(OC)c2ccccc12` (centres undefined) the same measures were over 200 µM and over 200 µM.
Consider `O=c1c2c(-c3ccccc3)onc2n(-c2ccccc2)c(=O)n1-c1ccccc1`, for which the EC50 was over 200 µM and the IC50 was found to be 10.5 µM.
For the compound `NC(=O)CC(NC(=O)c1ccccc1SC(=O)CCCC[n+]1ccccc1)C(N)=O` (centres undefined), the EC50 was 32.4 µM and the IC50 is over 200 µM.
The corresponding values for `C=C=CC(C)(O)c1ccc(-c2ccccc2)cc1` (centres undefined) are over 191 µM and 45.7 µM.
Take `O/N=C1/CCCC/C1=C\c1ccc(Cl)c(Cl)c1`: the outcome was inactive.
On to `CC(=O)N1CCN(C23OC4(N5CCN(C(C)=O)CC5)C5C6CC(C7C6C4C72)C53)CC1` (centres undefined), for which the EC50 is over 200 µM and the IC50 is over 200 µM.
On to `Cn1nc2ccc([N+](=O)[O-])c(Cn3nnc4ccccc43)c2n1`, for which the EC50 was over 200 µM and the IC50 turned out to be 58.9 µM.
For `CCOC(=O)c1cc(=O)oc2c1N(C)c1ncccc1N2` the same measures were over 200 µM and 166 µM.
For `C=C(C)c1ccc2c(c1)C(=O)C[C@@H]1[C@](C)(C#N)CCC[C@]21C` the same measures were over 200 µM and 44.7 µM.
As for `COc1ccc2nc3n(c2c1)C(c1c(F)cccc1Cl)SC3` (centres undefined), the EC50 was over 200 µM and the IC50 was over 200 µM.
On to `CCOC(=O)c1cc(C2(O)CCN(CC(C)CC)C2=O)c(-c2cc(C)no2)[nH]1` (centres undefined), for which the EC50 is over 200 µM and the IC50 was over 200 µM.
For the compound `O=C1c2ccccc2C(=O)c2c1ccc1c2N=C(c2ccc(F)cc2)CC(c2ccc(Cl)c(Cl)c2)N1` (centres undefined), the EC50 is over 14.1 µM and the 50% inhibitory concentration (IC50) is over 14.1 µM.
`CCN(CC)C(=O)N1CN(c2ccccc2)C2(CCN(CCCC3(c4ccc(F)cc4)OCCO3)CC2)C1=O`: the EC50 was over 200 µM and the IC50 was 27.5 µM.
`Cc1cc2c(cc1C)C(=O)/C(=C/c1ccccc1C(=O)O)C2`: the EC50 was over 145 µM and the 50% inhibitory concentration (IC50) came to 45.7 µM.
Turning to `COc1ccc(Cn2nc(OCc3ccccc3)c3cc([N+](=O)[O-])ccc32)cc1`, the EC50 is over 200 µM and the IC50 amounted to 25.1 µM.
For `O=C(/C=C/c1ccccc1)CSc1ncn[nH]1` the same measures were over 200 µM and 12 µM.
Turning to `CCSSC12CCCN1C(=O)C1CCCN1C2=O` (centres undefined), the EC50 was over 200 µM and the IC50 was determined as 15.8 µM.
Consider `C=C1C(OC(C)=O)[C@@]23CC[C@@H]4C(C)(C(=O)OC)CCCC4(C)[C@@H]2CC[C@@H]1C3` (some centres undefined), for which the EC50 was over 200 µM and the IC50 amounted to 51.3 µM.

(Values after PubChem BioAssay AID179 (DTP/NCI, 2004).)
